This is an account of results in publication PMC4494927, “Discovery of a small molecule targeting SET-PP2A interaction to overcome BCR-ABLT315I mutation of chronic myeloid leukemia” (Oncotarget, 2015).

Data set [1] concerns BCR-ABL. Briefly: Western blot of BCR-ABL expression in K562 cells. The data set is classed as cell-based, human. The method, then: Protein samples (40 μg) were resolved on SDS-PAGE gels, transferred onto PVDF membranes (Millipore) and incubated overnight with primary antibodies to β-tubulin, BCR-ABL, p-BCR-ABL, SET, PP2Ac and p-PP2Ac. The membranes were incubated with horseradish peroxidase (HRP)-conjugated secondary antibody for 1 h, and the bands were visualized using an ECL detection kit following the manufacturer's instructions. For immunoprecipitation, cells were lysed in 20 mM Tris-HCl (pH 7.0), 150 mM NaCl, 1 mM EDTA, 1 mM MgCl and 0.5% NP-40 supplemented with a cocktail of protease and phosphatase inhibitors (Roche). Lysates (200 μg) were incubated with primary antibodies (1 μg) against SET or PP2Ac at 4 °C for 10 h, protein A/G plus agarose beads were then added for immunoprecipitation overnight at 4 °C. After wash, the immunoprecipitated proteins were separated by SDS-PAGE and analyzed by Western blotting.

The test system of data set [2] is K562 cells. Briefly: Cytotoxicity assay (CellTiter-Glo). The data set is classed as cell-based, human. The method, then: Twenty types of tumor cell lines were seeded at 4000 cells per well in 96-well plates. […] Cell viability was measured with the CellTiter-Glo Luminescent Cell Viability Assay (Promega) according to the manufacturer's instructions. Luminescence was measured using an EnVision Multilabel Plate Reader (Perkin-Elmer). The cytotoxicity of TGI1002 was expressed as the percentage of luminescence relative to that of untreated cells.

For data set [3], the system named is BaF3-p210^T315I cells. Briefly: Survival study, intravenously injected tumor cells. The class given is in vivo, BALB/c mice. The settings on record: vehicle 25.5 days. On the procedure: In survival study, BaF3-p210^T315I cells were injected into the tail vein of BALB/c mice (100 μL of a 1 × 10^7 cells suspension in serum free medium). […] Moribund animals were sacrificed as per institutional and national guidelines. Survival data were analyzed by the Kaplan Meier method and compared using the log-rank test.

The target of data set [4] is T1, recombinant human SET protein (Homo sapiens, UniProt Q01105).
T1 construct: Genes encoding the full length of human SET (GenBank No.: AAA60318.1) was synthesized; made in house; host or cells: E. coli (pET-21a)
Briefly: Microscale thermophoresis (MST) binding to NT647-labeled SET. The conditions noted are these: 15 μM NT647-labeled SET, PBS pH 8.0, 25 °C. The method, then: Thermophoresis analysis was performed during 30 s on a NanoTemper Monolith NT.115 instrument (20% LED, 40% MST power) at 25 °C.

Data set [5] concerns PP2A. Briefly: PP2Ac immunoprecipitation phosphatase assay in K562 cells. The data set is classed as cell-based, human. The method, then:
PP2A assay from whole cell lysates was carried out using commercial PP2Ac immunoprecipitation phosphatase assay kit (Millipore). Briefly, 200 μg protein lysates prepared as described above, 4 μg PP2Ac-specific antibody, and 40 μL protein A-agarose were added to TBS buffer (20 mM Tris-HCl, 150 mM NaCl, and 0.1% Tween 20) to a final volume of 500 μL and immunoprecipitation was carried out at 4 °C for 2 h. The immunoprecipitates were used in the phosphatase reaction following the manufacturer's protocol.

Data set [6] concerns BaF3-p210^T315I tumor xenografts. Briefly: In vivo anti-tumor efficacy, subcutaneous xenograft. Further details: species or system BALB/c mice. The conditions noted are these: TGI1002 30, 45, 60 mg/kg; imatinib, ponatinib 10 mg/kg; i.p. daily. The method, then: BABL/c male mice from SLRC Experimental Animal Center were bred under pathogen-free conditions and were used for experiments at 6-8 weeks of age. Animal experiments were performed according to institutional and national guidelines. BaF3-p210^T315I cells were implanted subcutaneously into the right flank of nude mice (200 μL of a 1 × 10^7cells suspension in serum free medium). When tumors became large enough for caliper measurement, tumor volumes were calculated as (length × width^2) × 0.5. […] At the end of the experiments, tumors were dissected and photographed, and wet weights of each tumor were measured.

In data set [7] the target is T2, recombinant human SET protein in full length (human, UniProt Q01105-2 1-277, labeled with RED fluorescent dye NT-647-NHS).
T2 construct: human SET, full length, gene synthesized after GenBank AAA60318.1 and subcloned into pET-21a; also called SET oncoprotein; NT647-labeled SET protein
Briefly: MST; serial dilutions of the peptide (up to 2 mM) mixed with 15 μM NT647-labeled SET protein, 10 min at room temperature, 20 mM PBS pH 8.0, 25 °C, Monolith NT.115 (20% LED, 40% MST power). The settings on record: both partners purified.

T1 sequence (Q01105 1-277 isoform Q01105-2): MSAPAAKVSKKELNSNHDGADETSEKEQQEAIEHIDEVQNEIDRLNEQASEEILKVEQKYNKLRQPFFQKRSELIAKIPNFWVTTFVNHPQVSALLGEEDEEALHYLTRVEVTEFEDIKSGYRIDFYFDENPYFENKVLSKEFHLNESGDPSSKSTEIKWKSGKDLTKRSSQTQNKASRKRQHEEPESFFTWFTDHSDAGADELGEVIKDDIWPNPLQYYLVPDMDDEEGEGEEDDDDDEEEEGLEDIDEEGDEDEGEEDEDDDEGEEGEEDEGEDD
T2 sequence (Q01105 other isoform, or with tags, fused parts or gaps): as the sequence (Q01105 1-277 isoform Q01105-2) above

On to `CO[C@H]1/C=C\C=C(/C)C(=O)NC2=CC(=O)C(NCCN(C)C)=C(C[C@@H](C)C[C@H](OC)[C@H](O)[C@@H](C)/C=C(\C)[C@@H]1OC(N)=O)C2=O` [17-DMAG, reference compound], for which, in data set [1], the “expression level of BCR-ABL” value is recorded as “significantly degraded”.

In the case of `Cc1ccc(NC(=O)c2cccc(CN3CCN(CC(=O)O)CC3)c2)cc1Oc1nccc(-c2cccnc2)n1` [TGI1002-COOH], in data set [2], the “cytotoxicity compared to the parent compound TGI1002” value was “comparable cytotoxicity”. With `Cc1ccc(NC(=O)c2ccc(CN3CCN(C)CC3)cc2)cc1Nc1nccc(-c2cccnc2)n1` [imatinib, reference compound], in data set [3] (10 mg/kg i.p. once daily from day 5), the median survival worked out at 25 days. Further, in data set [4], the Kd value result is given as “did not bind SET to give a meaningful Kd value”. Consider `C=C1[C@@H](O)[C@@H]2O[C@]3(CC[C@H](/C=C/[C@@H](C)[C@@H]4CC(C)=C[C@@]5(O[C@H](C[C@@](C)(O)C(=O)O)CC[C@H]5O)O4)O3)CC[C@H]2O[C@@H]1[C@@H](O)C[C@H](C)[C@H]1O[C@@]2(CCCCO2)CC[C@H]1C` [okadaic acid, reference compound], for which the “PP2A activity compared to control” value in data set [5] is reported as “decreased significantly”.

In data set [3], `Cc1ccc(C(=O)Nc2ccc(CN3CCN(C)CC3)c(C(F)(F)F)c2)cc1C#Cc1cnc2cccnn12` [ponatinib, reference compound] registered a median survival of 37 days. Besides, the “final tumor volume and weight compared to vehicle group” value in data set [6] is recorded as “markedly lower”.

B1: ApoE-mimetic peptide COG112 (peptide)
peptide: Ac-LRVRLASHLRKLRKRLL-NH2
notes: source: synthetic peptide (ChinaPeptides Co., Ltd, > 95% purity)
B1: the Kd in data set [7] was 4.4 ± 0.39 µM.
